Assay: Henry solubility constant Hcp at 298.15 K (mol/(m3 Pa))
Conditions: reference: Kim and Kim (2014)

Structure (SMILES) | Henry solubility constant Hcp
Cc1cccc(C)c1 [1,3-dimethylbenzene] | 0.0013
CCCC=O [butanal] | 0.061
Cc1ccccc1C [1,2-dimethylbenzene] | 0.0019
CC(C)CC=O [3-methylbutanal] | 0.021
CC(=O)CC(C)C [4-methyl-2-pentanone] | 0.039
CCCCC=O [pentanal] | 0.039
Cc1ccc(C)cc1 [1,4-dimethylbenzene] | 0.0013
CCCCOC(C)=O [butyl ethanoate] | 0.024
CC(C)CO [2-methyl-1-propanol] | 0.22
c1ccccc1 [benzene] | 0.0017
C=Cc1ccccc1 [ethenylbenzene] | 0.0027
Cc1ccccc1 [methylbenzene] | 0.0015

Source: Sander's compilation of Henry's law constants (doi:10.1016/j.chroma.2014.03.040)
